Results taken from US9375004B2 (Bayer Intellectual Property GmbH, priority 2010, dated 2016).
Where two headings read alike, the source gives them in different places.

What was measured:
[1] = tested on: Alternaria solani; test: Alternaria test (tomato)/preventive; type: in vivo; conditions: 500 ppm, preventive, evaluated 7 days after inoculation
[2] = tested on: Pyrenophora teres; test: Pyrenophora teres-test (barley)/preventive; type: in vivo; conditions: 500 ppm, preventive, evaluated 8 days after inoculation
[3] = tested on: Fusarium nivale (var. majus); test: Fusarium nivale (var. majus)-test (wheat)/preventive; conditions: for Efficacy: preventive, evaluated 5 days after inoculation
[4] = tested on: Botrytis cinerea; test: Botrytis test (beans)/preventive; conditions: 100 ppm, preventive, lesion size 2 days after inoculation
Experimental: Botrytis Test (Beans)/Preventive
(§1) Solvent: 24.5 parts by weight of acetone • 24.5 parts by weight of N,N-dimethylformamide
(§2) Emulsifier: 1 part by weight of alkylaryl polyglycol ether
After the spray coating has dried on, 2 small pieces of agar covered with growth of Botrytis cinerea are placed on each leaf. The inoculated plants are placed in a darkened chamber at 20° C. and a relative atmospheric humidity of 100%.
2 days after the inoculation, the size of the lesions on the leaves is evaluated.

[5] = tested on: Uromyces appendiculatus; conditions: 100 ppm, beans, preventive, evaluated 10 days after inoculation
[6] = tested on: Venturia inaequalis; test: Venturia test (apples)/preventive; conditions: 100 ppm, preventive, evaluated 10 days after inoculation
Experimental: Venturia Test (Apples)/Preventive
as §1, §2
After the spray coating has dried on, the plants are inoculated with an aqueous conidia suspension of the causal agent of apple scab (Venturia inaequalis) and then remain for 1 day in an incubation cabinet at approximately 20° C. and a relative atmospheric humidity of 100%.
The plants are then placed in a greenhouse at approximately 21° C. and a relative atmospheric humidity of approximately 90%.
The test is evaluated 10 days after the inoculation.

[7] = logP by HPLC on reversed-phase column (EEC Directive 79/831 Annex V.A8); conditions: HPLC on reversed-phase column (C 18), EEC Directive 79/831 Annex V.A8
[8] = tested on: Sphaerotheca fuliginea; test: Sphaerotheca test (cucumber)/preventive; type: in vivo; conditions: 500 ppm, preventive, evaluated 7 days after inoculation
[9] = tested on: Septoria tritici; test: Septoria tritici-test (wheat)/preventive; type: in vivo; conditions: 500 ppm, preventive, evaluated 21 days after inoculation
[10] = tested on: Puccinia triticina; test: Puccinia triticina-test (wheat)/preventive; type: in vivo; conditions: 500 ppm, preventive, evaluated 8 days after inoculation
[11] = tested on: Pyricularia oryzae; type: in vivo
[12] = tested on: Cochliobolus miyabeanus; test: Cochliobolus test (rice)/protective; type: in vivo; conditions: 250 ppm, protective, evaluated 4 days after inoculation
[13] = tested on: Rhizoctonia solani; test: Rhizoctonia test (rice)/protective; type: in vivo; conditions: 250 ppm, protective, evaluated 4 days after inoculation
Experimental: Rhizoctonia Test (Rice)/Protective
Solvent: 28.5 parts by weight of acetone
Emulsifier: 1.5 part by weight of alkylaryl polyglycol ether
1 day after the treatment, the plants are inoculated with hyphae of Rhizoctonia solani.
Evaluation is carried out 4 days after the inoculation.

| Structure (SMILES) | Efficacy [1] | Efficacy [2] | Efficacy ([3]; 500 ppm) | Efficacy [4] | Efficacy [5] | Efficacy [6] | logP [7] | Efficacy [8] | Efficacy [9] | Efficacy [10] | Efficacy ([11]; 100 ppm, rice, protective, evaluated 5 days after inoculation) | Efficacy ([11]; 250 ppm, rice, protective, evaluated 5 days after inoculation) | protection ([11]; dose of 100 ppm and 250 ppm of active ingredient, rice) | Efficacy [12] | Efficacy [13] | Efficacy ([5]; listed as 105 from this invention) | Efficacy ([11]; in vivo) | Efficacy ([3]; 250 ppm) | protection ([3]; dose of 250 ppm and 500 ppm of active ingredient) |
| --- | --- | --- | --- | --- | --- | --- | --- | --- | --- | --- | --- | --- | --- | --- | --- | --- | --- | --- | --- |
| Cn1nc(C(F)F)c(C(=O)Nc2ccccc2-c2ccc(Br)c(Cl)c2)c1Cl [Example 153] | 90% | 100% | 93% | 75% | 100% | 95% | 4.19 | 100% | 86% | 100% |  |  |  |  |  |  |  |  |  |
| Cn1cc(C(=O)Nc2ccc(F)cc2-c2ccc(Cl)c(Cl)c2)c(C(F)F)n1 [11 from WO-2003/070705, N-(3′,4′-dichloro-5-fluorobiphenyl-2-yl)-3-(difluoromethyl)-1-methyl-1H-pyrazole-4-carboxamide, reference compound] |  |  |  |  |  |  |  |  |  |  | 20% | 80% | poor (less than 20%) protection to good (at least 70%) protection |  |  |  |  |  |  |
| Cn1nc(C(F)F)c(C(=O)Nc2ccccc2-c2ccc(Cl)c(F)c2)c1Cl [Example 99] |  | 100% | 100% | 97% | 100% | 100% | 3.71 |  | 86% | 100% |  |  |  | 95% | 100% |  |  |  |  |
| Cn1nc(C(F)F)c(C(=O)Nc2ccccc2-c2ccc(C(F)(F)F)c(F)c2)c1F [Example 149] | 100% | 100% | 93% | 99% | 100% | 100% | 3.46 | 100% | 100% | 100% |  |  |  |  |  |  |  |  |  |
| Cn1nc(C(F)F)c(C(=O)Nc2ccccc2-c2cc(F)c(F)c(F)c2)c1Cl [Example 105] |  | 100% | 100% | 100% |  | 100% | 3.52 |  |  | 100% |  |  |  | 95% | 100% | 100% |  |  |  |
| Cn1nc(C(F)F)c(C(=O)Nc2ccccc2-c2ccc(F)c(F)c2)c1F [Example 90] | 90% | 100% |  |  |  |  | 3.20 | 95% | 86% | 100% |  |  |  |  |  |  |  |  |  |
| Cn1nc(C(F)F)c(C(=O)Nc2ccccc2CC[Si](C)(C)C)c1Cl [Example 24] |  | 86% | 86% | 78% | 100% | 100% | 4.36 |  |  | 100% |  |  |  |  | 100% |  | 98% |  |  |
| CC(C)CCc1ccccc1NC(=O)c1c(C(F)F)nn(C)c1F [Example 7] | 95% | 100% |  |  |  |  | 3.60 |  | 88% | 100% |  |  |  | 80% | 100% |  | 97% |  |  |
| Cn1nc(C(F)F)c(C(=O)Nc2ccc(F)cc2-c2ccc(C(F)(F)F)cc2)c1F [Example 118] | 100% | 100% | 71% | 100% | 95% | 100% | 3.60 | 100% | 86% | 100% |  |  |  |  |  |  |  |  |  |
| CC(C)OCc1cccc(NC(=O)c2c(C(F)F)nn(C)c2F)c1 [Example 166] |  |  |  |  |  |  | 2.72 |  |  |  |  |  |  | 80% |  |  |  |  |  |
| Cn1nc(C(F)F)c(C(=S)Nc2ccccc2-c2cc(F)c(F)c(F)c2)c1F [Example 106] | 90% | 100% |  |  | 100% | 100% | 3.65 | 98% | 80% | 100% |  |  |  |  |  |  |  |  |  |
| Cn1nc(C(F)F)c(C(=O)Nc2ccccc2-c2ccc(Cl)c(F)c2)c1F [Example 100] | 80% | 100% | 90% | 99% | 99% | 99% | 3.45 | 100% | 100% | 100% |  |  |  |  |  |  |  |  |  |
| Cn1nc(C(F)F)c(C(=S)Nc2ccccc2-c2ccc(C(F)(F)F)c(F)c2)c1Cl [Example 151] | 95% | 100% | 100% |  |  |  | 4.06 | 98% | 93% | 100% |  |  |  |  |  |  |  |  |  |
| CC(C)C1C2CCC1c1c(NC(=O)c3c(C(F)F)nn(C)c3Cl)cccc12 (centres unmarked) [Example 67] |  | 100% | 100% | 99% | 100% | 100% | 4.55 |  | 100% | 100% |  |  |  | 90% | 100% |  | 96% | 71% |  |
| CC(C)CC(C)c1ccccc1NC(=O)c1c(C(F)F)nn(C)c1F (centres unmarked) [Example 11] | 100% | 100% |  | 95% | 100% | 100% | 3.85 | 100% | 89% | 100% |  |  |  |  | 100% |  |  |  |  |
| CCCCCc1ccccc1NC(=O)c1c(C(F)F)nn(C)c1Cl [Example 12] |  | 100% | 86% | 99% | 100% | 100% | 4.01 |  | 71% | 100% |  |  |  |  | 100% |  | 93% | 71% | at least 70% |
| CC(CC(C)(C)C)c1ccccc1NC(=O)c1c(C(F)F)nn(C)c1Cl (centres unmarked) [Example 22] |  | 100% | 86% | 100% | 100% | 100% | 4.31 |  |  | 100% |  |  |  |  | 100% |  | 80% |  |  |
| Cn1nc(C(F)F)c(C(=O)Nc2ccccc2-c2ccc(Br)cc2)c1F [Example 139] |  | 100% | 93% | 100% | 100% | 100% | 3.56 |  | 100% | 100% |  |  |  | 95% | 100% |  |  |  |  |
| Cn1nc(C(F)F)c(C(=O)Nc2ccc(F)cc2-c2ccc(Cl)c(F)c2)c1Cl [Example 98] |  | 100% | 86% | 100% | 100% | 100% | 3.74 |  |  | 100% |  |  |  | 93% | 100% |  |  |  |  |
| Cn1nc(C(F)F)c(C(=O)Nc2ccccc2-c2cccc(Cl)c2)c1F [Example 86] | 95% | 100% | 71% | 100% | 100% | 100% | 3.55 |  | 86% | 100% |  |  |  |  |  |  |  |  |  |
| Cn1nc(C(F)F)c(C(=O)Nc2ccccc2OC(F)(F)C(F)C(F)(F)F)c1Cl (centres unmarked) [Example 31] | 100% |  |  |  |  |  | 3.71 | 91% |  |  |  |  |  | 80% | 100% |  | 98% |  |  |
